Results as given in US11584747B2, “Substituted pyridopyrimidinonyl compounds useful as T cell activators” (BRISTOL-MYERS SQUIBB COMPANY, priority 2019, dated 2023).
Like-named read-outs stand apart in the source and are kept apart here.

What was measured:
human DGKα [1] = biological target: T1, human DGKα (Homo sapiens (Human), UniProt P23743); assay: DGKα LIPGLO assay (extruded liposome substrate, ADP-Glo luminescence); assay type: biochemical; conditions: liposome assay; read-out: DGK alpha LIPGLO IC50
T1 sequence (P23743 whole entry, looked up): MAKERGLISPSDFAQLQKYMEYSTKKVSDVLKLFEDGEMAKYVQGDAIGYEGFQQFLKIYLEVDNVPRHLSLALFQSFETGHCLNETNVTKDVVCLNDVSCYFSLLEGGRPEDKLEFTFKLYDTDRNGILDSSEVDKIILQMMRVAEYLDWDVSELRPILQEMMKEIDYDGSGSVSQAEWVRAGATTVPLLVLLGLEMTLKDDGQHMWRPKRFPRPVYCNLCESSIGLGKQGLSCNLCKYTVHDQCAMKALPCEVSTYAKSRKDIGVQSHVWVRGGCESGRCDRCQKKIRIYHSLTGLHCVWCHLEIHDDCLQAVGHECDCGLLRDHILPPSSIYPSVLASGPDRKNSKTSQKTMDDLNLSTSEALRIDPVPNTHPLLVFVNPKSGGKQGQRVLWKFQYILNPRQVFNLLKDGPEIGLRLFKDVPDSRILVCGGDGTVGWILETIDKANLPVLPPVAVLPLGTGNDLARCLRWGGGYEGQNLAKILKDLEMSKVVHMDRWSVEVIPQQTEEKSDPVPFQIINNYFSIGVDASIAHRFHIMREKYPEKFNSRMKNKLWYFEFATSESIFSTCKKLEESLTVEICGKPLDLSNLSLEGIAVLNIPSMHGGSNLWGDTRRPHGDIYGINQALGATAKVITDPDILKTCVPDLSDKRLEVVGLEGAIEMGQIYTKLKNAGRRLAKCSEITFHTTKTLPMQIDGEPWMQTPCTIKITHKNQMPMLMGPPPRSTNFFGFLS

human DGKζ = human DGKζ (Homo sapiens (Human), UniProt Q13574); assay: DGKζ LIPGLO assay (extruded liposome substrate, ADP-Glo luminescence); assay type: biochemical
Chain of human DGKζ (Q13574 other isoform, or with tags, fused parts or gaps): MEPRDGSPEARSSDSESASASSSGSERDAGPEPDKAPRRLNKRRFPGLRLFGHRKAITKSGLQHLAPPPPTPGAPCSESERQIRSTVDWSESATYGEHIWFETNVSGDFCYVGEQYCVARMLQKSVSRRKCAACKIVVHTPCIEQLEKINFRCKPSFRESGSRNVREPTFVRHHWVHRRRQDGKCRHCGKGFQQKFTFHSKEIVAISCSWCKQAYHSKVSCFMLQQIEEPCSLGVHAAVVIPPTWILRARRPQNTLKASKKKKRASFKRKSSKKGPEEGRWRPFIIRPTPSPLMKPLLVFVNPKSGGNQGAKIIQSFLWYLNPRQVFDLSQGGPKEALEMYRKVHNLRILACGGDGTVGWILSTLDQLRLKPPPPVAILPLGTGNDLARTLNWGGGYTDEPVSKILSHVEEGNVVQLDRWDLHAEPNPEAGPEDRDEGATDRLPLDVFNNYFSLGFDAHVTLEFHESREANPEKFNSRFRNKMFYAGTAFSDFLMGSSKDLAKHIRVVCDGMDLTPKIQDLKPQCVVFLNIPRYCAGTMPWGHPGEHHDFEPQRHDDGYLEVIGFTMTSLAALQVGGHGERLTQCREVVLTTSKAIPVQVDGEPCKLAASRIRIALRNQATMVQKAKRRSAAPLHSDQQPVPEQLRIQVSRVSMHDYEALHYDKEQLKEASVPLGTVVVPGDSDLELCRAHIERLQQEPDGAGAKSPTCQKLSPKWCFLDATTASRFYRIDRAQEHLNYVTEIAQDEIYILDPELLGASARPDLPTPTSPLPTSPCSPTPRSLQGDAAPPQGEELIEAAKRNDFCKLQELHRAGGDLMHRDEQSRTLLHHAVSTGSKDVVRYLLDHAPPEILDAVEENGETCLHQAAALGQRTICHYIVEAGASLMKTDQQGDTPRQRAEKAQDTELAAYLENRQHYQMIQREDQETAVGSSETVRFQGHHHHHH

human DGKα [2] = biological target: T1, human DGKα; assay: DGKα ADPGLO assay (detergent/lipid micelle substrate); assay type: biochemical
Protocol: DGK Alpha ADPGLO (Truncated) IC50 (uM)
The detergent/lipid micelle was prepared by combining 15 g phosphatidylserine (Avanti 840035P) and 1 g diacylglycerol (8008110) and dissolving into 150 mL chloroform in a 2 L round bottom flask. Chloroform was removed under high vacuum by rotary evaporation. […] The lipid/detergent solution was split into 5 mL aliquots and stored at −80° C.

[3] = test system: human venous whole blood (IFN-γ); assay: Human whole blood IFN-γ assay; assay type: cell-based
Protocol: Human venous whole blood (22.5 μL per well), obtained from healthy donors, was pre-treated with compounds for one hour at 37° C. in a humidified 95% air/5% CO2 incubator. The blood was stimulated with 2.5 μL anti-human CD3 and anti-CD28 mAb at a final concentration of 1 μg/mL each for 24 hours at 37° C. IFN-γ in the supernatants was measured using AlphLISA kit (Cat #AL217).

[4] = liposome assay, read-out: DGK zeta LIPGLO IC50
[5] = liposome (LIPGLO) assay, read-out: DGK zeta (liposome assay) IC50
[6] = ADPGLO assay, read-out: DGK alpha ADPGLO IC50
[7] = human whole blood, anti-CD3 plus anti-CD28 stimulation, 24 hours, read-out: IFN-γ Whole Blood EC50
[8] = truncated DGK alpha, read-out: DGK alpha ADPGLO (Truncated) IC50
[9] = whole blood, normalized to 3 μM reference compound as 100% activation, read-out: IFN-γ Whole Blood Normalized EC50
[10] = Homo sapiens, whole blood, normalized to 3 μM reference compound as 100% activation, read-out: IFN-γ Whole Blood Normalized EC50

Row | IC50 (human DGKα [1]) | IC50 (human DGKζ; [4]) | IC50 (human DGKα [2]; [8]) | Structure (SMILES) | further results
1 | 36 nM | 14 nM |  | CCC(c1ccc(OC(F)F)cc1)N1C[C@H](C)N(c2nc(=O)n(C)c3ccc(C#N)nc23)C[C@H]1CC (single isomer, unassigned) [Example 77] | 
2 | 650 nM | 730 nM |  | CC[C@H]1CN(C(C)c2ccc(C(F)(F)F)cc2F)[C@H](C)CN1c1nc(=O)n(C)c2ccc(C#N)nc12 (stereo partly drawn) [Example 119, 4-((2S,5R)-2-ethyl-4-(1-(2-fluoro-4-(trifluoromethyl)phenyl)ethyl)-5-methylpiperazin-1-yl)-1-methyl-2-oxo-1,2-dihydropyrido[3,2-d]pyrimidine-6-carbonitrile] | 
3 | 125000 nM | 5070 nM |  | CC[C@H]1CN(C(C)c2ccc(C(F)(F)F)cc2N2CCOCC2)[C@H](CC)CN1c1nc(=O)n(C)c2ccc(C#N)nc12 (stereo partly drawn) [Example 195, 4-((2S,5R)-2,5-diethyl-4-(1-(2-morpholino-4-(trifluoromethyl)phenyl)ethyl)piperazin-1-yl)-1-methyl-2-oxo-1,2-dihydropyrido[3,2-d]pyrimidine-6-carbonitrile] | 
4 | 1940 nM | 1650 nM |  | CC[C@H]1CN(C(c2ccc(F)cc2)c2cccc(C(F)(F)F)n2)[C@H](C)CN1c1nc(=O)n(C)c2ccc(C#N)nc12 (stereo partly drawn) [Example 121, 4-((2S,5R)-2-ethyl-4-((4-fluorophenyl)(6-(trifluoromethyl)pyridin-2-yl)methyl)-5-methylpiperazin-1-yl)-1-methyl-2-oxo-1,2-dihydropyrido[3,2-d]pyrimidine-6-carbonitrile] | 
5 | 2410 nM |  |  | CC(c1cc(F)c(F)c(F)c1)N1C[C@H](C)N(c2nc(=O)n(C)c3ccc(C#N)nc23)C[C@H]1C (single isomer, unassigned) [Example 138] | 
6 | 5 nM | 60 nM |  | CCC(c1ccc(OC(F)(F)F)cc1F)N1C[C@H](CC)N(c2nc(=O)n(C)c3ccc(C#N)nc23)C[C@H]1CC (stereo partly shown) [Example 11] | 
7 | 2160 nM | 1180 nM |  | CCC(c1ccc2c(c1)OC(F)(F)O2)N1C[C@H](C)N(c2nc(=O)n(C)c3ccc(C#N)nc23)C[C@H]1CC (single isomer, unassigned) [Example 80] | 
8 | 7 nM | 48 nM |  | CC[C@H]1CN(C(C)c2ccc(OC(F)(F)F)cc2)[C@H](CC)CN1c1nc(=O)n(C)c2ccc(C#N)nc12 (single isomer, unassigned) [Example 9] | 
9 | 32 nM | 1960 nM |  | CC[C@H]1CN(C(C)c2ccc(OC(F)(F)F)cc2)[C@H](C)CN1c1nc(=O)n(C)c2ccc(C#N)nc12 (stereo partly drawn) [Example 122, 4-((2S,5R)-2-ethyl-5-methyl-4-(1-(4-(trifluoromethoxy)phenyl)ethyl)piperazin-1-yl)-1-methyl-2-oxo-1,2-dihydropyrido[3,2-d]pyrimidine-6-carbonitrile] | 
10 | 45 nM | 37 nM |  | CC[C@H]1CN(C(C)c2ccc(OC)cc2)[C@H](CC)CN1c1nc(=O)n(C)c2ccc(C#N)nc12 (single isomer, unassigned) [Example 16] | 
11 | 10 nM | 120 nM |  | CC(c1ccc(OC(F)F)cc1)N1C[C@H](C)N(c2nc(=O)n(C)c3ccc(C#N)nc23)C[C@H]1C (single isomer, unassigned) [Example 156] | 
12 | 250 nM | 750 nM |  | CCC(c1ccc(OC(F)(F)F)cc1)N1C[C@H](C)N(c2nc(=O)n(C)c3ccc(C#N)nc23)C[C@H]1C (single isomer, unassigned) [Example 155] | 
13 | 370 nM | 970 nM |  | CC[C@H]1CN(C(C)c2ccc(OC(F)(F)F)cc2)[C@H](CC)CN1c1nc(=O)n(C)c2ccc(C#N)nc12 (single isomer, unassigned) [Example 10] | 
14 |  |  |  | CC[C@H]1CN(C(c2ccc(F)cc2)c2noc(C3CC3)n2)[C@H](CC)CN1c1nc(=O)n(C)c2ccc(C#N)nc12 (single isomer, unassigned) [Example 372] | IC50 (human DGKζ; [5]): 43 nM; IC50 (human DGKα [2]; [6]): 4 nM; EC50 [3, 7]: 150 nM
15 |  | 260 nM | 460 nM | [2H]C([2H])([2H])Oc1ccc(C(C)N2C[C@H](CC)N(c3nc(=O)n(C)c4ccc(C#N)nc34)C[C@H]2CC)cc1 (single isomer, unassigned) [Example 191] | EC50 [3, 9]: 290 nM
16 |  |  |  | CCC(c1ccc(C(F)(F)F)cc1)N1C[C@H](CC)N(c2nc(=O)n(C)c3ccc(Cl)nc23)C[C@H]1CC (single isomer, unassigned) [Example 421] | IC50 (human DGKζ; [5]): 320 nM; IC50 (human DGKα [2]; [6]): 64 nM; EC50 ([3]; Homo sapiens, 24 h, human whole blood, anti-CD3 plus anti-CD28 stimulation, 24 hours, read-out: IFN-γ Whole Blood EC50): 190 nM
17 |  | 70 nM | 18 nM | CCC(c1ccc(OC)cc1)N1C[C@H](CC)N(c2nc(=O)n(C)c3ccc(C#N)nc23)C[C@H]1CC (stereo partly drawn) [Example 212, 4-((2S,5R)-2,5-diethyl-4-(1-(4-methoxyphenyl)propyl)piperazin-1-yl)-1-methyl-2-oxo-1,2-dihydropyrido[3,2-d]pyrimidine-6-carbonitrile] | EC50 [3, 9]: 22 nM
18 |  | 110 nM | 110 nM | CC[C@@H]1CN(c2nc(=O)n(C)c3ccc(C#N)nc23)[C@@H](C)CN1C(c1ccc(F)cc1)c1csc(C(F)(F)F)n1 (stereo partly drawn) [Example 297, 4-((2S,5R)-5-ethyl-4-((4-fluorophenyl)(2-(trifluoromethyl)thiazol-4-yl)methyl)-2-methylpiperazin-1-yl)-1-methyl-2-oxo-1,2-dihydropyrido[3,2-d]pyrimidine-6-carbonitrile] | EC50 [3, 9]: 53 nM
19 |  | 100 nM | 46 nM | CC[C@H]1CN(C(c2ccc(F)cc2)c2csc(C(F)(F)F)n2)[C@H](CC)CN1c1nc(=O)n(C)c2ccc(C#N)nc12 (stereo partly drawn) [Example 211, 4-((2S,5R)-2,5-diethyl-4((4-fluorophenyl)(2-(trifluoromethyl)thiazol-4-yl)methyl)piperazin-1-yl)-1-methyl-2-oxo-1,2-dihydropyrido[3,2-d]pyrimidine-6-carbonitrile] | EC50 [3, 9]: 18 nM
20 |  |  |  | CC(c1ccc(CN2CCOC(C)(C)C2)cc1)N1C[C@H](C)N(c2nc(=O)n(C)c3ccc(C#N)nc23)C[C@H]1C (single isomer, unassigned) [Example 386] | IC50 (human DGKζ; [5]): 5070 nM; IC50 (human DGKα [2]; [6]): 2700 nM; EC50 [3, 7]: 2490 nM
21 |  | 1030 nM | 91 nM | [2H]C([2H])([2H])Oc1ccc(C(CC)N2C[C@H](CC)N(c3nc(=O)n(C)c4ccc(C#N)nc34)C[C@H]2CC)cc1 (single isomer, unassigned) [Example 209] | EC50 [3, 9]: 1280 nM
22 |  | 3740 nM | 61 nM | CC[C@@H]1CN(c2nc(=O)n(C)c3ccc(C#N)nc23)[C@@H](CC)CN1Cc1ccc(C(F)(F)F)cc1 [Example 205, 4-((2S,5R)-2,5-diethyl-4-(4-(trifluoromethyl)benzyl)piperazin-1-yl)-1-methyl-2-oxo-1,2-dihydropyrido[3,2-d] pyrimidine-6-carbonitrile] | EC50 [3, 10]: 830 nM
23 |  | 2230 nM | 94 nM | CCC(c1ccc(Cl)cc1F)N1C[C@H](CC)N(c2nc(=O)n(C)c3ccc(C#N)nc23)C[C@H]1CC (stereo partly drawn) [Example 239, 4-((2S,5R)-4-(1-(4-chloro-2-fluorophenyl)propyl)-2,5-diethylpiperazin-1-yl)-1-methyl-2-oxo-1,2-dihydropyrido[3,2-d]pyrimidine-6-carbonitrile] | EC50 [3, 9]: 2850 nM
24 |  |  |  | CC(c1ccc(CN2C[C@@H]3C[C@H]2CO3)cc1)N1C[C@H](C)N(c2nc(=O)n(C)c3ccc(C#N)nc23)C[C@H]1C (stereo partly drawn) [Example 388, 4-((2S,5R)-4-(1-(4-(((1S,4S)-2-oxa-5-azabicyclo[2.2.1]heptan-5-yl)methyl)phenyl)ethyl)-2,5-dimethylpiperazin-1-yl)-1-methyl-2-oxo-1,2-dihydropyrido[3,2-d]pyrimidine-6-carbonitrile] | IC50 (human DGKζ; [5]): 45700 nM; IC50 (human DGKα [2]; [6]): 1750 nM; EC50 [3, 7]: 20000 nM
25 |  | 2080 nM | 130 nM | CCC(c1ccc(OC(F)F)cc1)N1C[C@H](CC)N(c2nc(=O)n(C)c3ccc(C#N)nc23)C[C@H]1CC (stereo partly drawn) [Example 223, 4-((2S,5R)-4-(1-(4-(difluoromethoxy)phenyl)propyl)-2,5-diethylpiperazin-1-yl)-1-methyl-2-oxo-1,2-dihydropyrido[3,2-d]pyrimidine-6-carbonitrile] | EC50 [3, 10]: 900 nM
26 |  | 4680 nM | 1280 nM | CC[C@@H]1CN(c2nc(=O)n(C)c3ccc(C#N)nc23)[C@@H](C)CN1C(C)c1ccc2oc(=O)n(C)c2c1 (stereo partly drawn) [Example 299, 4-((2S,5R)-5-ethyl-2-methyl-4-(1-(3-methyl-2-oxo-2,3-dihydrobenzo[d]oxazol-5-yl)ethyl)piperazin-1-yl)-1-methyl-2-oxo-1,2-dihydropyrido[3,2-d]pyrimidine-6-carbonitrile] | EC50 [3, 9]: 3460 nM
27 |  | 150 nM | 530 nM | CC[C@H]1CN(C(C)c2ccc(CN3CCOC(C)(C)C3)cc2)[C@H](CC)CN1c1nc(=O)n(C)c2ccc(C#N)nc12 (stereo partly drawn) [Example 275, 4-((2S,5R)-4-(1-(4-((2,2-dimethylmorpholino)methyl)phenyl)ethyl)-2,5-diethylpiperazin-1-yl)-1-methyl-2-oxo-1,2-dihydropyrido[3,2-d]pyrimidine-6-carbonitrile] | EC50 [3, 9]: 35 nM
